Assay: Toxicokinetics of S9229 in the 28-day rat study
Assay type: in vivo, Sprague-Dawley rats
Conditions: for AUC0-24hr Ratio / Cmax Ratio: vs 10 mg/kg dose; for AUC(0-t) / Cmax / Tmax / half-life: rat, plasma, po; for AUC(0-t): AUC0-24hr
[1] = female, Sprague-Dawley (Crl:CD(SD)), 10 mg/kg, Day 1, 10 mg/kg bw, F
[2] = female, Sprague-Dawley (Crl:CD(SD)), 30 mg/kg, Day 1, 30 mg/kg bw, F
[3] = female, Sprague-Dawley (Crl:CD(SD)), 100 mg/kg, Day 1, 100 mg/kg bw, F
[4] = female, Sprague-Dawley (Crl:CD(SD)), 100 mg/kg, Day 28, 100 mg/kg bw, F
[5] = female, Sprague-Dawley [Crl:CD(SD)], 10 mg/kg, Day 28, 10 mg/kg bw, F
[6] = female, Sprague-Dawley [Crl:CD(SD)], 30 mg/kg, Day 28, 30 mg/kg bw, F
[7] = male, Sprague-Dawley (Crl:CD(SD)), 10 mg/kg, Day 1, 10 mg/kg bw, M
[8] = male, Sprague-Dawley (Crl:CD(SD)), 10 mg/kg, Day 28, 10 mg/kg bw, M
[9] = male, Sprague-Dawley (Crl:CD(SD)), 30 mg/kg, Day 1, 30 mg/kg bw, M
[10] = male, Sprague-Dawley (Crl:CD(SD)), 100 mg/kg, Day 1, 100 mg/kg bw, M
[11] = male, Sprague-Dawley (Crl:CD(SD)), 100 mg/kg, Day 28, 100 mg/kg bw, M
[12] = male, Sprague-Dawley [Crl:CD(SD)], 30 mg/kg, Day 28, 30 mg/kg bw, M

In the case of COC[C@@H](CC(C)C)NC(=O)c1ccc(C)c(C)c1 [S9229, (R)-N-(1-methoxy-4-methylpentan-2-yl)-3,4-dimethylbenzamide], the “AUC0-24hr Ratio” value (Day 1, 10 mg/kg bw, F) is reported as 1, the “Cmax Ratio” value (Day 1, 10 mg/kg bw, F) is reported as 1 and the “AUC0-24hr Ratio” value (Day 1, 10 mg/kg bw, M) is reported as 1. For the same molecule, the “Cmax Ratio” value (Day 1, 10 mg/kg bw, M) was 1, the “AUC0-24hr Ratio” value (Day 1, 30 mg/kg bw, F) was 1.11 and the “Cmax Ratio” value (Day 1, 30 mg/kg bw, F) was 0.55. The “AUC0-24hr Ratio” value (Day 1, 30 mg/kg bw, M) was 6.62, the “Cmax Ratio” value (Day 1, 30 mg/kg bw, M) was 7.06 and the “AUC0-24hr Ratio” value (Day 1, 100 mg/kg bw, F) was 23.4. The “Cmax Ratio” value (Day 1, 100 mg/kg bw, F) was 22.8, the “AUC0-24hr Ratio” value (Day 1, 100 mg/kg bw, M) was 48.3 and the “Cmax Ratio” value (Day 1, 100 mg/kg bw, M) was 61.8. The “AUC0-24hr Ratio” value (Day 28, 10 mg/kg bw, F) was 1, the “Cmax Ratio” value (Day 28, 10 mg/kg bw, F) was 1 and the “AUC0-24hr Ratio” value (Day 28, 10 mg/kg bw, M) was 1. For the same molecule, the “Cmax Ratio” value (Day 28, 10 mg/kg bw, M) was 1, the “AUC0-24hr Ratio” value (Day 28, 30 mg/kg bw, F) was 6.90 and the “Cmax Ratio” value (Day 28, 30 mg/kg bw, F) was 4.85. The “AUC0-24hr Ratio” value (Day 28, 30 mg/kg bw, M) was 10.4, the “Cmax Ratio” value (Day 28, 30 mg/kg bw, M) was 5.67 and the “AUC0-24hr Ratio” value (Day 28, 100 mg/kg bw, F) was 68.6. For the same molecule, the “Cmax Ratio” value (Day 28, 100 mg/kg bw, F) was 57.2, the “AUC0-24hr Ratio” value (Day 28, 100 mg/kg bw, M) was 71.1 and the “Cmax Ratio” value (Day 28, 100 mg/kg bw, M) was 33.6. The AUC(0-t) [1] was 11.4 ± 11.1 ng·h/mL, the Cmax [1] was 15.6 ± 17 ng/mL and the Tmax [1] was 0.5 h. The AUC(0-t) [2] was 12.6 ± 2.8 ng·h/mL, the Cmax [2] was 8.6 ± 2.6 ng/mL and the Tmax [2] was 0.5 h. It also gave a Tmax (female, Sprague-Dawley (Crl:CD(SD)), 30 mg/kg, Day 28, 30 mg/kg bw, F) of 1 h, a half-life (female, Sprague-Dawley (Crl:CD(SD)), 30 mg/kg, t1/2, Day 1, 30 mg/kg bw, F) of 0.95 ± 0.48 h and a half-life (female, Sprague-Dawley (Crl:CD(SD)), 30 mg/kg, t1/2, Day 28, 30 mg/kg bw, F) of 2.16 ± 1.3 h. The AUC(0-t) [3] was 267 ± 174 ng·h/mL, the AUC(0-t) [4] was 144 ± 45.1 ng·h/mL and the Cmax [3] was 356 ± 256 ng/mL. For the same molecule, the Cmax [4] was 74.4 ± 31.7 ng/mL, the Tmax [3] was 0.5 h and the Tmax [4] was 1 h. It also gave a half-life (female, Sprague-Dawley (Crl:CD(SD)), 100 mg/kg, t1/2, Day 1, 100 mg/kg bw, F) of 0.97 ± 0.36 h, a half-life (female, Sprague-Dawley (Crl:CD(SD)), 100 mg/kg, t1/2, Day 28, 100 mg/kg bw, F) of 0.98 ± 0.1 h and an AUC(0-t) [5] of 2.1 ± 1.9 ng·h/mL. The Cmax [5] was 1.3 ± 1.3 ng/mL, the Tmax [5] was 1 h and the AUC(0-t) [6] was 14.5 ± 4.3 ng·h/mL. The Cmax [6] was 6.3 ± 3.2 ng/mL, the AUC(0-t) [7] was 3.9 ± 0.8 ng·h/mL and the AUC(0-t) [8] was 1.5 ± 0.6 ng·h/mL. It also gave a Cmax [7] of 3.2 ± 1.3 ng/mL, a Cmax [8] of 1.2 ± 0.3 ng/mL and a Tmax [7] of 0.5 h. For the same molecule, the Tmax [8] was 1.67 h, the half-life (male, Sprague-Dawley (Crl:CD(SD)), 10 mg/kg, t1/2, Day 1, 10 mg/kg bw, M) was 0.9 ± 0.23 h and the AUC(0-t) [9] was 25.8 ± 4.3 ng·h/mL. For the same molecule, the Cmax [9] was 22.6 ± 10.5 ng/mL, the Tmax [9] was 0.5 h and the half-life (male, Sprague-Dawley (Crl:CD(SD)), 30 mg/kg, t1/2, Day 1, 30 mg/kg bw, M) was 1.16 ± 0.46 h. For the same molecule, the AUC(0-t) [10] was 188 ± 78.8 ng·h/mL, the AUC(0-t) [11] was 107 ± 41.6 ng·h/mL and the Cmax [10] was 198 ± 98.5 ng/mL. For the same molecule, the Cmax [11] was 40.3 ± 20.5 ng/mL, the Tmax [10] was 0.5 h and the Tmax [11] was 1 h. For the same molecule, the half-life (male, Sprague-Dawley (Crl:CD(SD)), 100 mg/kg, t1/2, Day 1, 100 mg/kg bw, M) was 1.04 ± 0.04 h, the half-life (male, Sprague-Dawley (Crl:CD(SD)), 100 mg/kg, t1/2, Day 28, 100 mg/kg bw, M) was 1.39 ± 0.28 h and the AUC(0-t) [12] was 15.6 ± 2.7 ng·h/mL. The Cmax [12] was 6.8 ± 2.3 ng/mL, the Tmax [12] was 1 h and the half-life (male, Sprague-Dawley [Crl:CD(SD)], 30 mg/kg, t1/2, Day 28, 30 mg/kg bw, M) was 1.42 ± 0.28 h.
